Assays:
Assay in all cases: relative viability (nuclei count vs DMSO), 5 days (fraction); higher = more cells survive
[1] = test system: NCI-H647
How it was run: (§1)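 Dosing by pin tool came one day after lung cancer cell lines were seeded in 1536-well plates, using either one drug or a fixed anchor-drug dose plus five library-drug doses (not always all listed) in √10 steps. After 5 days, nuclei were counted on 4× images. Relative viability is treated-well nuclei count divided by vehicle-well nuclei count, and values are medians of duplicate plates.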

[2] = test system: RERF-LC-KJ
How it was run: as §1

[3] = test system: NCI-H596
How it was run: as §1

[4] = test system: LCLC-103H
How it was run: as §1

[5] = test system: COR-L23
How it was run: as §1

[6] = test system: HOP-62
How it was run: as §1

[7] = test system: A-427
How it was run: as §1

[8] = test system: NCI-H1975
How it was run: as §1

[9] = test system: NCI-H2085
How it was run: as §1

[10] = test system: NCI-H1563
How it was run: as §1

[11] = test system: LXF-289
How it was run: as §1

[12] = test system: NCI-H2342
How it was run: as §1

[13] = test system: COR-L 105
How it was run: as §1

[14] = test system: NCI-H1395
How it was run: as §1

[15] = test system: NCI-H2087
How it was run: as §1

[16] = test system: NCI-H1651
How it was run: as §1

[17] = test system: NCI-H2023
How it was run: as §1

[18] = test system: NCI-H3122
How it was run: as §1

[19] = test system: NCI-H2170
How it was run: as §1

[20] = test system: CAL-12T
How it was run: as §1

[21] = test system: NCI-H650
How it was run: as §1

[22] = test system: SK-MES-1
How it was run: as §1

`COCC1(CO)C(=O)C2CCN1CC2` (centres undefined) [PRIMA-1MET] + COc1cc2c(Oc3ccc(NC(=O)C4(C(=O)Nc5ccc(F)cc5)CC4)cc3F)ccnc2cc1OCCCN1CCOCC1 [Foretinib] (partner 0.25 µM) was tested. Which relative viability ([1]; first compound 0.2 µM) did it give?
The relative viability was 1.29.

And the relative viability ([1]; first compound 0.6325 µM)?
The relative viability was 0.973.

And the relative viability ([1]; first compound 2 µM)?
The relative viability was 1.08.

And the relative viability ([1]; first compound 6.325 µM)?
The relative viability was 1.22.

And the relative viability ([1]; first compound 20 µM)?
Its relative viability is 1.16.

What about the relative viability ([2]; first compound 0.2 µM) of the same compound?
The relative viability was 0.872.

And the relative viability ([2]; first compound 0.6325 µM)?
The relative viability was 0.878.

And the relative viability ([2]; first compound 2 µM)?
The relative viability was 0.922.

And the relative viability ([2]; first compound 6.325 µM)?
Its relative viability is 0.957.

What about the relative viability ([2]; first compound 20 µM) of the same compound?
The relative viability was 0.819.

What about the relative viability ([3]; first compound 0.2 µM) of the same compound?
Its relative viability is 0.91.

What about the relative viability ([3]; first compound 0.6325 µM) of the same compound?
Its relative viability is 0.924.

What about the relative viability ([3]; first compound 2 µM) of the same compound?
Its relative viability is 0.697.

What about the relative viability ([3]; first compound 6.325 µM) of the same compound?
The relative viability was 0.318.

What about the relative viability ([3]; first compound 20 µM) of the same compound?
Its relative viability is 0.0971.

What about the relative viability ([4]; first compound 0.2 µM) of the same compound?
Its relative viability is 0.915.

What about the relative viability ([4]; first compound 0.6325 µM) of the same compound?
Its relative viability is 0.718.

What about the relative viability ([4]; first compound 2 µM) of the same compound?
The relative viability was 0.698.

What about the relative viability ([4]; first compound 6.325 µM) of the same compound?
The relative viability was 0.726.

What about the relative viability ([4]; first compound 20 µM) of the same compound?
The relative viability was 0.189.

What about the relative viability ([5]; first compound 0.2 µM) of the same compound?
The relative viability was 1.23.

And the relative viability ([5]; first compound 0.6325 µM)?
Its relative viability is 0.956.

And the relative viability ([5]; first compound 2 µM)?
The relative viability was 0.95.

What about the relative viability ([5]; first compound 6.325 µM) of the same compound?
Its relative viability is 1.06.

What about the relative viability ([5]; first compound 20 µM) of the same compound?
The relative viability was 0.0732.

What about the relative viability ([6]; first compound 0.2 µM) of the same compound?
Its relative viability is 1.18.

What about the relative viability ([6]; first compound 0.6325 µM) of the same compound?
Its relative viability is 1.07.

And the relative viability ([6]; first compound 2 µM)?
Its relative viability is 0.931.

What about the relative viability ([6]; first compound 6.325 µM) of the same compound?
Its relative viability is 1.1.

What about the relative viability ([6]; first compound 20 µM) of the same compound?
Its relative viability is 0.799.

What about the relative viability ([7]; first compound 0.2 µM) of the same compound?
Its relative viability is 0.902.

And the relative viability ([7]; first compound 0.6325 µM)?
The relative viability was 0.837.

What about the relative viability ([7]; first compound 2 µM) of the same compound?
The relative viability was 0.895.

And the relative viability ([7]; first compound 6.325 µM)?
Its relative viability is 0.983.

And the relative viability ([7]; first compound 20 µM)?
The relative viability was 0.953.

And the relative viability ([8]; first compound 0.2 µM)?
The relative viability was 1.07.

What about the relative viability ([8]; first compound 0.6325 µM) of the same compound?
Its relative viability is 0.958.

What about the relative viability ([8]; first compound 2 µM) of the same compound?
The relative viability was 0.916.

What about the relative viability ([8]; first compound 6.325 µM) of the same compound?
Its relative viability is 1.01.

What about the relative viability ([8]; first compound 20 µM) of the same compound?
Its relative viability is 0.626.

And the relative viability ([9]; first compound 0.2 µM)?
The relative viability was 1.01.

What about the relative viability ([9]; first compound 0.6325 µM) of the same compound?
The relative viability was 1.01.

What about the relative viability ([9]; first compound 2 µM) of the same compound?
Its relative viability is 0.772.

And the relative viability ([9]; first compound 6.325 µM)?
The relative viability was 0.53.

What about the relative viability ([9]; first compound 20 µM) of the same compound?
The relative viability was 0.122.

What about the relative viability ([10]; first compound 0.2 µM) of the same compound?
Its relative viability is 1.05.

What about the relative viability ([10]; first compound 0.6325 µM) of the same compound?
Its relative viability is 1.

And the relative viability ([10]; first compound 2 µM)?
The relative viability was 0.838.

What about the relative viability ([10]; first compound 6.325 µM) of the same compound?
Its relative viability is 0.911.

And the relative viability ([10]; first compound 20 µM)?
Its relative viability is 0.288.

What about the relative viability ([11]; first compound 0.2 µM) of the same compound?
Its relative viability is 1.05.

And the relative viability ([11]; first compound 0.6325 µM)?
The relative viability was 0.95.

And the relative viability ([11]; first compound 2 µM)?
The relative viability was 0.993.

What about the relative viability ([11]; first compound 6.325 µM) of the same compound?
The relative viability was 1.02.

And the relative viability ([11]; first compound 20 µM)?
Its relative viability is 0.949.

And the relative viability ([12]; first compound 0.2 µM)?
The relative viability was 1.06.

And the relative viability ([12]; first compound 0.6325 µM)?
Its relative viability is 0.986.

And the relative viability ([12]; first compound 2 µM)?
The relative viability was 0.887.

And the relative viability ([12]; first compound 6.325 µM)?
Its relative viability is 1.01.

And the relative viability ([12]; first compound 20 µM)?
The relative viability was 0.99.

And the relative viability ([13]; first compound 0.2 µM)?
The relative viability was 1.48.

And the relative viability ([13]; first compound 0.6325 µM)?
The relative viability was 1.02.

What about the relative viability ([13]; first compound 2 µM) of the same compound?
The relative viability was 1.17.

What about the relative viability ([13]; first compound 6.325 µM) of the same compound?
Its relative viability is 1.2.

What about the relative viability ([13]; first compound 20 µM) of the same compound?
The relative viability was 0.551.

What about the relative viability ([14]; first compound 0.2 µM) of the same compound?
Its relative viability is 1.03.

What about the relative viability ([14]; first compound 0.6325 µM) of the same compound?
The relative viability was 0.652.

And the relative viability ([14]; first compound 2 µM)?
Its relative viability is 1.05.

And the relative viability ([14]; first compound 6.325 µM)?
Its relative viability is 1.

And the relative viability ([14]; first compound 20 µM)?
Its relative viability is 0.971.

What about the relative viability ([15]; first compound 0.2 µM) of the same compound?
The relative viability was 1.29.

And the relative viability ([15]; first compound 0.6325 µM)?
Its relative viability is 1.17.

And the relative viability ([15]; first compound 2 µM)?
The relative viability was 0.932.

What about the relative viability ([15]; first compound 6.325 µM) of the same compound?
The relative viability was 1.02.

What about the relative viability ([15]; first compound 20 µM) of the same compound?
The relative viability was 0.632.

And the relative viability ([16]; first compound 0.2 µM)?
The relative viability was 0.87.

And the relative viability ([16]; first compound 0.6325 µM)?
The relative viability was 0.578.

And the relative viability ([16]; first compound 2 µM)?
Its relative viability is 0.77.

And the relative viability ([16]; first compound 6.325 µM)?
Its relative viability is 0.933.

What about the relative viability ([16]; first compound 20 µM) of the same compound?
Its relative viability is 0.827.

And the relative viability ([17]; first compound 0.2 µM)?
The relative viability was 1.03.

What about the relative viability ([17]; first compound 0.6325 µM) of the same compound?
The relative viability was 0.781.

And the relative viability ([17]; first compound 2 µM)?
Its relative viability is 0.827.

What about the relative viability ([17]; first compound 6.325 µM) of the same compound?
The relative viability was 0.915.

What about the relative viability ([17]; first compound 20 µM) of the same compound?
Its relative viability is 0.813.

And the relative viability ([18]; first compound 0.2 µM)?
Its relative viability is 0.739.

What about the relative viability ([18]; first compound 0.6325 µM) of the same compound?
The relative viability was 0.762.

And the relative viability ([18]; first compound 2 µM)?
The relative viability was 0.963.

What about the relative viability ([18]; first compound 6.325 µM) of the same compound?
The relative viability was 0.984.

And the relative viability ([18]; first compound 20 µM)?
The relative viability was 0.882.

And the relative viability ([19]; first compound 0.2 µM)?
Its relative viability is 1.04.

What about the relative viability ([19]; first compound 0.6325 µM) of the same compound?
Its relative viability is 0.921.

And the relative viability ([19]; first compound 2 µM)?
The relative viability was 0.945.

And the relative viability ([19]; first compound 6.325 µM)?
The relative viability was 1.01.

What about the relative viability ([19]; first compound 20 µM) of the same compound?
Its relative viability is 0.94.

What about the relative viability ([20]; first compound 0.2 µM) of the same compound?
Its relative viability is 1.33.

And the relative viability ([20]; first compound 0.6325 µM)?
Its relative viability is 1.23.

And the relative viability ([20]; first compound 2 µM)?
Its relative viability is 1.

And the relative viability ([20]; first compound 6.325 µM)?
Its relative viability is 1.16.

And the relative viability ([20]; first compound 20 µM)?
The relative viability was 0.939.

And the relative viability ([21]; first compound 0.2 µM)?
The relative viability was 1.34.

What about the relative viability ([21]; first compound 2 µM) of the same compound?
Its relative viability is 0.917.

And the relative viability ([21]; first compound 6.325 µM)?
Its relative viability is 1.1.

And the relative viability ([21]; first compound 20 µM)?
The relative viability was 0.644.

And the relative viability ([22]; first compound 0.2 µM)?
The relative viability was 1.11.

What about the relative viability ([22]; first compound 0.6325 µM) of the same compound?
Its relative viability is 0.941.

And the relative viability ([22]; first compound 2 µM)?
Its relative viability is 0.795.

And the relative viability ([22]; first compound 6.325 µM)?
The relative viability was 1.15.

What about the relative viability ([22]; first compound 20 µM) of the same compound?
Its relative viability is 0.955.

Reference: the supplement of paper PMC10307832
